Patent US10149478B2, “Biologically active formulation” (Endura S.P.A., priority 2005, dated 2018)

Tested on: Bemisia tabaci (whitely) biotype B
Experiment: Leaf dip bioassay, mortality assay for insecticide compounds (Example 20)
Type: in vivo
Conditions: for LC50% a.i. (*): quantity of pure insecticide achieving 50% mortality; for resistance factor: relative to non-resistant insects
Experimental: The “leaf dip bioassay” used for testing the activity of insecticides against Bemisia tabaci (whitely) biotype B, was similar to that described by Cahill, M et al, Bull. Entomol. Res. 85, 181-187, 1995.
Cotton plants (Gossypium hirsutum L.) were grown without any exposure to the insecticides. The leaves were cut up into disc shapes and immersed in an aqueous solution of insecticide containing 0.01% of Agral then left to dry at 25° C.
Control leaves were immersed in Agral and distilled water only.
About 20 adult insects were placed onto the small discs of treated cotton leaf.
The insects were allowed to feed and maximum mortality was evaluated at 24 and 48 hours.
LC50% a.i. and LC99% a.i indicate the quantity of active ingredient (i.e pure insecticide) able to achieve mortality for 50% and 99% of the insects tested.

[1] = adults on treated cotton leaf discs, maximum mortality evaluated at 24 and 48 hours

SMILES	LC50% a.i. (*) [1]	resistance factor	LC99% a.i. (*) (quantity of pure insecticide achieving 99% mortality, adults on treated cotton leaf discs, maximum mortality evaluated at 24 and 48 hours)
O=[N+]([O-])NC1=NCCN1Cc1ccc(Cl)nc1 [Imidacloprid]	4.7 ppm	2336 times	
C/C(=N\C#N)N(C)Cc1ccc(Cl)nc1 [Acetamiprid]	0.00038 ppm	21 times	0.098 ppm
